Assay results: article PMC11066976 (Cell reports, 2023)
Read-outs that look alike come from different tables or passages of the source. Values belong to the molecule of their own block, whether it stands above or below them.

What was measured:
Test in all cases: compensated interferometric reader
transcobalamin 2 (TCN2) [1] = molecular target: T1, transcobalamin 2 (TCN2) (Homo sapiens, UniProt P20062); format: binding
T1 sequence (P20062 19-427): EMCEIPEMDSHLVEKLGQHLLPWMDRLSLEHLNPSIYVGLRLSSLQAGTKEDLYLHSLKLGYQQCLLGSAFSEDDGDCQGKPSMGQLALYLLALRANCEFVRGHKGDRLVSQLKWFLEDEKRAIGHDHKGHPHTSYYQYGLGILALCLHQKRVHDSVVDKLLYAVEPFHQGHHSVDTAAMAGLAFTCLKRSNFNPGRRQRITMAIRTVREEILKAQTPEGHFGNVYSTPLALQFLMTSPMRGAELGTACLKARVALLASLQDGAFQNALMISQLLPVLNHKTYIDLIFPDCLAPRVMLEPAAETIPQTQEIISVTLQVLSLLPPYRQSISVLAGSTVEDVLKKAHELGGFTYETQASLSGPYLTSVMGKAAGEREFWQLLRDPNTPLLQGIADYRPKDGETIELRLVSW

CD320 = molecular target: T2, CD320 (Homo sapiens, UniProt Q9NPF0); format: binding
T2 sequence (Q9NPF0 36-229 limits assumed): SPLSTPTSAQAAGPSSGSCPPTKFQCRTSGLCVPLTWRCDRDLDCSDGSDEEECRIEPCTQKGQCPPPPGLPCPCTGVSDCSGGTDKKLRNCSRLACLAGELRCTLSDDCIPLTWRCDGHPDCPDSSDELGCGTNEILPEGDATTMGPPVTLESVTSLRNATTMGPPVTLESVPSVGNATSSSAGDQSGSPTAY

transcobalamin 2 (TCN2) [2] = molecular target: T1, transcobalamin 2 (TCN2); format: binding; remark: listed apart in the source
Recombinant human TCN2 = molecular target: T3, Recombinant human TCN2 (human, UniProt P20062 19-427)
T3 sequence (looked up): T1 sequence (P20062 19-427)

Molecule: CCCCCCCCc1ccc(CCC(N)(CO)CO)cc1 [FTY720]
Kd (transcobalamin 2 (TCN2) [1]): 0.24 nM

Molecule: CCCCCCCCCCCCC/C=C/[C@@H](O)[C@@H](N)COP(=O)(O)O [S1P]
Kd (CD320): 11.8 nM

B1: Recombinant human CD320 (receptor, UniProt Q9NPF0 36-229, looked up)
chain: T2 sequence (Q9NPF0 36-229 limits assumed)
Kd (Recombinant human TCN2): 1.86 nM

Further lines, results first:

Kd (transcobalamin 2 (TCN2) [2]): 0.14 nM
Molecule: CCCCCCCCCCCCC/C=C/[C@@H](O)[C@@H](N)CO [sphingosine]

Kd (transcobalamin 2 (TCN2) [2]): 0.19 nM
Molecule: Vitamin B12
